Consider 6 compounds from patent US20100317656A1, “IMIDAZO[1,2-a]PYRIDINE-2-CARBOXAMIDE DERIVATIVES, PREPARATION THEREOF AND APPLICATION THEREOF IN THERAPEUTICS” (SANOFI-AVENTIS, priority 2008, published 2010).

In this test the target is T1, mouse Nurr1 receptor (Mus musculus, UniProt Q06219).
T1 construct: a cell line (N2A) endogenously expressing the mouse Nurr1 receptor; host or cells: Neuro-2A (N2A) mouse neuroblastoma cells stably transfected with 8NBRE-luciferase
T1 sequence (Q06219 whole entry): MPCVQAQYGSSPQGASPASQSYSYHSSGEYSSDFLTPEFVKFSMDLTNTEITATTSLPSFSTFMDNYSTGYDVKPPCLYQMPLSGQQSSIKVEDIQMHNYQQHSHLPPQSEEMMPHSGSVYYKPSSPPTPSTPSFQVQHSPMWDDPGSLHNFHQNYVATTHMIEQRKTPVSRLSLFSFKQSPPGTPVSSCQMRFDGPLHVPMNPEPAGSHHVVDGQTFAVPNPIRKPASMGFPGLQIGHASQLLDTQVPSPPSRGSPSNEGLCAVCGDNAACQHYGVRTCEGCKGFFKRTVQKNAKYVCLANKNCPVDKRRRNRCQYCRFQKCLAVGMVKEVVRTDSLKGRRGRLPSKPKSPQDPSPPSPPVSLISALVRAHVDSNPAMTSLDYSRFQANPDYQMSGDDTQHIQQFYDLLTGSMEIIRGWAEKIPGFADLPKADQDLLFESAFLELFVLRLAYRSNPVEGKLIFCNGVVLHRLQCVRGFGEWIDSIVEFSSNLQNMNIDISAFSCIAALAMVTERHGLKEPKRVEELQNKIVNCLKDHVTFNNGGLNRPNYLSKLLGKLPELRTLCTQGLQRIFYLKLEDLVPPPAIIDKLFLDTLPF
Briefly: Evaluation of the in vitro activity on N2A cells (NBRE-luciferase reporter). In kind it is cell-based. The settings on record: N2A (Neuro-2A) cells endogenously expressing Nurr1, stably transfected with 8NBRE-luciferase; products incubated 24 hours; luminescence. How it is done: The activity of the compounds according to the invention was evaluated on a cell line (N2A) endogenously expressing the mouse Nurr1 receptor and stably transfected with the NOT binding response element (NBRE) coupled to the luciferase reporter gene. The EC50 values are between 0.01 and 1000 nM. The assays were carried out according to the procedure described below.
The Neuro-2A cell line comes from a standard commercial source (ATCC). The Neuro-2A clone was obtained, from a spontaneous tumour originating from an A albino mouse strain, by R. J Klebe et al. This Neuro-2A line is subsequently stably transfected with 8NBRE-luciferase. The N2A-8NBRE cells are cultured until confluence in 75 cm^2 culture flasks containing DMEM supplemented with 10% of foetal calf serum, 4.5 g/l of glucose and 0.4 mg/ml of geneticin. After a week of culture, the cells are recovered with 0.25% trypsin for 30 seconds and then resuspended in DMEM without phenol red, containing 4.5 g/l of glucose and 10% of Hyclone delipidized serum, and deposited into transparent-bottom 96-well white plates. The cells are deposited at a rate of 60 000 per well in 75 μl for 24 hours before the addition of the products. The products are applied in 25 μl and incubated for a further 24 hours. On the day of the measurement, an equivalent volume (100 μl) of Steadylite is added to each well and then left for a period of 30 minutes in order to obtain complete cell lysis and maximum signal production. The plates are subsequently measured in a luminescence counter for microplates after having been sealed with an adhesive film. The products are prepared in the form of a stock solution at 10^−2M and then diluted in 100% of DMSO. Each product concentration is prediluted in culture medium before incubation with the cells, thus containing 0.625% final concentration of DMSO.
Background: Reporter assays use an easily measured gene product as a stand-in for the process of interest.
What is called EC50 is the concentration at which the effect is half-maximal. A higher EC50 goes with weaker potency. The compound `O=C(c1cn2cc(-c3cccc(CO)c3)ccc2n1)N1CC=CC1` [Compound 7, {3-[2-(2,5-Dihydro-1H-pyrrol-1-ylcarbonyl)imidazo[1,2-α]pyridin-6-yl]phenyl}methanol] showed an EC50 of 5 nM.

Take `O=C(c1cn2cc(-c3cccc(CO)c3)ccc2n1)N1CC=CCC1` [Compound 8, {3-[2-[(1,2,5,6-Tetrahydropyridin-1-yl)carbonyl]imidazo[1,2-α]pyridin-6-yl]phenyl}methanol]: the EC50 was found to be 0.8 nM.

`CN(C)c1ccc2nc(C(=O)N3CCc4ccc(F)cc43)cn2c1` [Compound 17, 2-[(6-Fluoro-2,3-dihydro-1H-indol-1-yl)carbonyl]-N,N-dimethylimidazo[1,2-α]pyridin-6-amine] had an EC50 of 6.7 nM.

On to `O=C(c1cn2cc(-c3ncco3)ccc2n1)N1CC=CCC1` [Compound 30, 6-(Oxazol-2-yl)-2-[(1,2,5,6-tetrahydropyridin-1-yl)carbonyl]imidazo[1,2-α]pyridine], for which the concentration for a half-maximal effect (EC50) is 56 nM.

In the case of `O=C(c1cn2cc(-c3nc[nH]n3)ccc2n1)N1CCc2ccccc21` [Compound 35, 2-(2,3-Dihydro-1H-indol-1-ylcarbonyl)-6-(1H-1,2,4-triazol-3-yl)imidazo[1,2-α]pyridine], a half-maximal response (EC50) required 11 nM.

In the case of `O=C(c1cn2cc(-c3c[nH]cn3)ccc2n1)N1CCc2ccccc21` [Compound 43, 2-(2,3-Dihydro-1H-indol-1-ylcarbonyl)-6-(1H-imidazol-4-yl)imidazo[1,2-α]pyridine], the EC50 is 2.4 nM.
